Test results as given in ChEMBL document CHEMBL5352392, “Design, synthesis, and biological evaluation of novel dual inhibitors of heat shock protein 90/mammalian target of rapamycin (Hsp90/mTOR) against bladder cancer cells” (Eur J Med Chem, 2022).

Legend:
[1] = system: T-24; assay: Antiproliferative activity against human T24 cells assessed as inhibition of cell proliferation at 1 uM by CCK8 assay relative to control; assay type: functional
[2] = molecular target: Serine/threonine-protein kinase mTOR (Homo sapiens, UniProt P42345); assay: Inhibition of mTOR (unknown origin) at 100 nM by kinase profiling assay relative to control
[3] = system: J82; assay: Antiproliferative activity against human J82 cells assessed as inhibition of cell proliferation at 1 uM by CCK8 assay relative to control; assay type: functional
[4] = system: SW780; assay: Antiproliferative activity against human SW780 cells assessed as inhibition of cell proliferation at 1 uM by CCK8 assay relative to control; assay type: functional
[5] = molecular target: Heat shock protein HSP90 (Homo sapiens, UniProt P07900+P08238); conditions: dose 100.0 nM
Description: Inhibition of Hsp90 (unknown origin) at 100 nM by TR-FRET assay relative to control

CC(C)c1cc(C(=O)N2CCc3c(sc4nc(N5CCOCC5)nc(NC5CCOCC5)c34)C2)c(O)cc1O
inhibition at 1 µM [1]: 29.5%
inhibition [2]: 33.7%
inhibition at 1 µM [3]: 37.1%
inhibition at 1 µM [4]: 38.9%
inhibition [5]: 38.2%

CC(C)c1cc(C(=O)N2CCc3c(sc4nc(-c5ccc(NC(=O)Nc6ccc(F)cc6)cc5)nc(N5CCOCC5)c34)C2)c(O)cc1O
inhibition at 1 µM [1]: 76.8%
inhibition [2]: 77.4%
inhibition at 1 µM [3]: 57.8%
inhibition at 1 µM [4]: 69.8%
inhibition [5]: 63.2%

CC(C)c1cc(C(=O)N2CCc3c(sc4nc(N5CCOC(F)(F)C5)nc(N5CCOCC5)c34)C2)c(O)cc1O
inhibition at 1 µM [1]: 63.8%
inhibition [2]: 57.6%
inhibition at 1 µM [3]: 62.7%
inhibition at 1 µM [4]: 58.8%
inhibition [5]: 53.8%

CC(C)c1cc(C(=O)N2CCc3c(sc4nc(NCCN5CCOCC5)nc(N5CCOCC5)c34)C2)c(O)cc1O
inhibition at 1 µM [1]: 78%
inhibition [2]: 68.2%
inhibition at 1 µM [3]: 72.2%
inhibition at 1 µM [4]: 55.2%
inhibition [5]: 62.1%

CC(C)c1cc(C(=O)N2CCc3c(sc4nc(-c5ccc(NC(=O)N6CCCCC6)cc5)nc(N5CCOCC5)c34)C2)c(O)cc1O
inhibition at 1 µM [1]: 41.6%
inhibition [2]: 50.4%
inhibition at 1 µM [3]: 54.9%
inhibition at 1 µM [4]: 45.1%
inhibition [5]: 46.7%

CCNC(=O)N(C(=O)NCC)c1ccc(-c2nc(N3CCOCC3)c3c4c(sc3n2)CN(C(=O)c2cc(C(C)C)c(O)cc2O)CC4)cc1
inhibition at 1 µM [1]: 61%
inhibition [2]: 53.5%
inhibition at 1 µM [3]: 53.4%
inhibition at 1 µM [4]: 63.2%
inhibition [5]: 55.7%

CC(C)c1cc(C(=O)N2CCc3c(sc4nc(N5CCN(C)CC5)nc(N5CCOCC5)c34)C2)c(O)cc1O
inhibition at 1 µM [1]: 69.9%
inhibition [2]: 62.6%
inhibition at 1 µM [3]: 59.2%
inhibition at 1 µM [4]: 68%
inhibition [5]: 63.8%

CC(C)c1cc(C(=O)N2CCc3c(sc4nc(N5CCOCC5)nc(N5CCOCC5)c34)C2)c(O)cc1O
inhibition at 1 µM [1]: 44.8%
inhibition [2]: 68.8%
inhibition at 1 µM [3]: 65%
inhibition at 1 µM [4]: 62.7%
inhibition [5]: 42.4%

CC(C)c1cc(C(=O)N2CCc3c(sc4nc(-c5ccc(NC(=O)Nc6ccccc6Cl)cc5)nc(N5CCOCC5)c34)C2)c(O)cc1O
inhibition at 1 µM [1]: 73.8%
inhibition [2]: 76.8%
inhibition at 1 µM [3]: 72.4%
inhibition at 1 µM [4]: 88.8%
inhibition [5]: 64.5%

CC(C)c1cc(C(=O)N2CCc3c(sc4nc(-c5ccc(NC(=O)Nc6cccc(F)c6)cc5)nc(N5CCOCC5)c34)C2)c(O)cc1O
inhibition at 1 µM [1]: 63.8%
inhibition [2]: 47.7%
inhibition at 1 µM [3]: 58.8%
inhibition at 1 µM [4]: 59.9%
inhibition [5]: 64.9%

CCNC(=O)Nc1ccc(-c2nc(N3CCOCC3)c3c4c(sc3n2)CN(C(=O)c2cc(C(C)C)c(O)cc2O)CC4)cc1
inhibition at 1 µM [1]: 57.9%
inhibition [2]: 68.6%
inhibition at 1 µM [3]: 67.6%
inhibition at 1 µM [4]: 70.2%
inhibition [5]: 62.2%

CC(C)c1cc(C(=O)N2CCc3c(sc4nc(N5CCOCC5)nc(N5CCN(C)CC5)c34)C2)c(O)cc1O
inhibition at 1 µM [1]: 40.9%
inhibition [2]: 32.7%
inhibition at 1 µM [3]: 37.2%
inhibition at 1 µM [4]: 44.9%
inhibition [5]: 40.8%

CN1CCc2c(sc3nc(-c4ccc(N)cc4)nc(N4CCOCC4)c23)C1
inhibition at 1 µM [1]: 32.8%
inhibition [2]: 66.2%
inhibition at 1 µM [3]: 50.4%
inhibition at 1 µM [4]: 20.7%

CC(C)c1cc(C(=O)N2CCc3c(sc4nc(N5CCCC5)nc(N5CCOCC5)c34)C2)c(O)cc1O
inhibition at 1 µM [1]: 54%
inhibition [2]: 52.3%
inhibition at 1 µM [3]: 43.1%
inhibition at 1 µM [4]: 42.1%
inhibition [5]: 46.6%

CC(C)c1cc(C(=O)N2CCc3c(sc4nc(N5CCOCC5)nc(N5CCOC(F)(F)C5)c34)C2)c(O)cc1O
inhibition at 1 µM [1]: 42.1%
inhibition [2]: 44.1%
inhibition at 1 µM [3]: 41.4%
inhibition at 1 µM [4]: 37.1%
inhibition [5]: 27.5%

CC(C)c1cc(C(=O)N2CCc3c(sc4nc(N5CCOCC5)nc(N5CCC(N(C)C)CC5)c34)C2)c(O)cc1O
inhibition at 1 µM [1]: 55.8%
inhibition [2]: 76.7%
inhibition at 1 µM [3]: 52.7%
inhibition at 1 µM [4]: 64.5%
inhibition [5]: 45.5%

CN1CCc2c(sc3nc(-c4ccncc4)nc(N4CCOCC4)c23)C1
inhibition at 1 µM [1]: 30.5%
inhibition [2]: 44.3%
inhibition at 1 µM [3]: 37.6%
inhibition at 1 µM [4]: 26.3%

CC(C)c1cc(C(=O)N2CCc3c(sc4nc(-c5ccc(NC(=O)Nc6ccccc6)cc5)nc(N5CCOCC5)c34)C2)c(O)cc1O
inhibition at 1 µM [1]: 60.1%
inhibition [2]: 74.5%
inhibition at 1 µM [3]: 79.7%
inhibition at 1 µM [4]: 66.2%
inhibition [5]: 59.2%

CC(C)c1cc(C(=O)N2CCc3c(sc4nc(NC5CCOCC5)nc(N5CCOCC5)c34)C2)c(O)cc1O
inhibition at 1 µM [1]: 49.7%
inhibition [2]: 57.5%
inhibition at 1 µM [3]: 57.6%
inhibition at 1 µM [4]: 61%
inhibition [5]: 58%
